# Patent publication US20130303564A1, “METHOD FOR TREATING A NEURODEGENERATIVE DISORDER” (RUSH UNIVERSITY MEDICAL CENTER, priority 2012, published 2013)
# Legend:
# [1] = system: BV-2 microglial cells; conditions: 500 μM, 6 h, 1 μM MPP+ 15 min
# Procedure: Cells were treated with 500 μM NaPB for 6 h followed by stimulation with 1 μM MPP+. At 15 min of stimulation, the generation of ROS was monitored by carboxy-H2DCFDA (A).
# We examined if Parkinsonian toxin MPP+ induced the production of ROS from microglia and if NaPB could attenuate such ROS production. To monitor the generation of intracellular ROS in BV-2 microglial cells, we used a cell-permeant fluorescent probe.
# Monitoring microglial ROS production: Cells, cultured in 8-well chamber slides, were treated with MPP+ under serum-free condition. At different time points of stimulation, supernatants were removed and cells were washed with Hank's buffered salt solution (HBSS) followed by addition of 100 μl of 25 μM carboxy-H2DCFDA to each well for 30 min of incubation. During the last five minutes of incubation, Hoechst 33342 was added to each well at a dilution of 1:1000 for staining nuclei. Cells were then washed with HBSS, mounted with DPX mounting media and observed under an Olympus 1×81 fluorescent microscope.
# [2] = system: NF-κB; test: DNA-binding activity of NF-κB by EMSA in BV-2 microglial cells; format: cell-based, mouse; conditions: NaPB different concentrations, 6 h preincubation, LPS 1 h
# Procedure: Results represent three independent experiments.
# Activation of NF-κB was monitored by IκBαphosphorylation, DNA binding activity by EMSA and transcriptional activity by reporter assays.
# Electrophoretic Mobility Shift Assay (EMSA): Nuclear extracts were prepared and EMSA was carried out. […] Six-micrograms of nuclear extract was incubated with binding buffer and with IR-labeled probe for 20 min. Subsequently, samples were separated on a 6% polyacrylamide gel in 0.25× TBE buffer (Tris borate-EDTA) and analyzed by Odyssey Infrared Imaging System (LI-COR Biosciences).
# [3] = system: MPTP-intoxicated mice; test: Locomotor and open-field activities in acute MPTP-intoxicated mice; format: in vivo, mouse; conditions: NaPB 200 mg/kg body wt/day from 3 h after last MPTP; 7 d
# Procedure: Mice receiving FTI, GGTI or the combination of the two via daily intraperitoneal injection from 3h after the last injection of MPTP were tested for motor functions (B, horizontal activity; C, total distance; D, number of movement; E, stereotypy) 7 d after the last injection of MPTP followed by measuring DA in striatum (A).
# The ultimate therapeutic goal of neuroprotection is to decrease functional impairment. Therefore, to examine whether NaPB protects not only against structural and neurotransmitter damage but also against functional deficits caused by MPTP, we monitored locomotor and open-field activities. MPTP injection caused marked decrease in rotorod performance (FIG. 15A), movement time (FIG. 15B), total distance (FIG. 15C), stereotypy (FIG. 15E), rearing (FIG. 15F), and horizontal activity (FIG. 15G). On the other hand, MPTP increased the rest time (FIG. 15D).
# Therefore, we investigated if inhibition of either p21^ras or p21^rac alone was sufficient for the protection of the nigrostriatum. MPTP-intoxicated mice received FTI and GGTI, either separately at 10 mg/kg body wt/d or together at 5 mg/kg body wt/d, via i.p. injection from 3 h after the last injection of MPTP. […]
# Behavioral analyses: Two types of behavioral experiments were conducted. […] Locomotor activity measures were assessed after baseline value comparison.
# [4] = system: human iNOS promoter; conditions: phiNOS(7.2)Luc; 6 h preincubation, IL-1β 20 ng/ml 12 h
# Procedure: (§1) Primary mouse microglia were treated with different concentrations of NaPB for 6 h followed by stimulation with LPS under serum-free condition. After 24 h of stimulation, concentrations of nitrite were measured in supernatants (A) and the level of iNOS protein was monitored in cells by Western blot (B). […] After 5 h of stimulation, the expression of iNOS mRNA was monitored by semi-quantitative RT-PCR (C). Cells preinctibated with different concentration of trichostatin A (TSA) and sodium butyrate (NaBu) for 6 h were stimulated with LPS for 24 h under serum-free condition followed by monitoring the level of nitrite in supernatants (p). […] Primary human astroglia isolated from fetal brain tissues were treated with different concentrations of NaPB for 6 h followed by stimulation with IL-1β under serum-free condition. After 48 h of stimulation, concentrations of nitrite (E) were measured in supernatants. Human astroglia plated at 70-80% confluence in 12-well plates were co-transfected with 0.25 μg of phiNOS(7.2)Luc and 12.5 ng of pRL-TK using the Lipofectamine-Plus (Invitrogen). Twenty-four h after transfection, cells received NaPB. After 6 h of incubation, cells were stimulated with IL-1β (20 ng/ml) for 12 h. Firefly (ff-Luc) and Renilla (r-Luc) luciferase activities were obtained by analyzing the total cell extract (F).
# [5] = system: primary human astroglia; conditions: 6 h preincubation, IL-1β 48 h
# Procedure: as §1
# [6] = system: IL-1β; conditions: 200 mg/kg body wt/d from 3 h after last MPTP; RT-PCR, real-time PCR
# Procedure: (§2) A) Mice were treated with NaPB (200 mg/kg body wt/d) from 3 h after the last injection of MPTP. […] The mRNA expression of TNF-α, iNOS and IL-1β was analyzed by semi-quantitative RT-PCR (C) and quantitative real-time PCR (D).
# (§3) Semi-quantitative RT-PCR analysis for proinflammatory molecules (iNOS, IL-1β and TNF-α) and glial cell markers: Total RNA was isolated from ventral midbrain using Ultraspec-II RNA reagent (Biotecx .Laboratories, Inc., Houston, Tex.) following manufacturer's protocol. To remove any contaminating genomic DNA, total RNA was digested with DNase. RT-PCR was carried out using a RT-PCR kit (Clontech., Mountain View, Calif.) and following primers.
# (§4) Real-time PCR analysis: It was performed in the ABI-Prism7700 sequence detection system (Applied Biosystems, Foster City, Calif.) using TaqMan Universal Master mix and optimized concentrations of FAM-labeled probes and primers.
# [7] = system: iNOS
# Procedure: as §2, §3, §4
# [8] = system: TNF-α; conditions: 200 mg/kg body wt/d from 3 h after last MPTP; RT-PCR, real-time PCR
# Procedure: as §2, §3, §4
# [9] = system: MPTP-intoxicated mice; test: HPLC analysis of striatal dopamine in acute MPTP-intoxicated mice; format: in vivo, mouse; conditions: NaPB 200 mg/kg body wt/day from 3 h after last MPTP; 7 days; MPTP alone about 76% decrease
# Procedure: Mice receiving NaPB (200 mg/kg body wt/day) from 3 h after the last injection of MPTP were sacrificed 7d after the last injection of MPTP followed by TH immunostaining of SNpc (A) and striatum (B), counting of TH-positive neurons in SNpc (C), quantification of TH-positive fibers in striatum (D), assay of neurotransmitters in striatum (E), and quantification of GSH in nigra (F). Data are means+SEM of eight mice per group. ^ap<0.0001 vs saline group; ^bp<0.0001 vs the MPTP group.
# Animals and MPTP intoxications: Six- to eight-week old C57BL/6 mice were purchased from Harlan, Indianapolis, Ind. For acute MPTP intoxication, mice received four intraperitoneal (i.p.) injections of MPTP-HCl (18 mg/kg of free base; Sigma Chemical Co., St. Louis, Mo.) in saline at 2 hr intervals. Control animals received only saline.
# HPLC analysis of striatal dopamine and its metabolite levels: Striatal level of dopamine, DOPAC (3,4-dihydroxyphenylacetic acid) and HVA (homovanillic acid) was quantified. […] After pH adjustment and filtration, lOul of supernatant was injected onto an Eicompak SC-3ODS column (Complete Stand-Alone HPLC-ECD System EiCOMITTEC-500 from JM Science Inc., Grand Island, N.Y.) and analyzed following manufacturer's protocol.
# [10] = system: p21^ras; conditions: 500 μM preincubation
# Procedure: A) Mouse BV-2 microglial cells preincubated with different concentrations of FTI and GGTI were stimulated with LPS for 60 min followed by monitoring the activation of NF-κB by EMSA. B) Cells preincubated with different concentrations of FTI and GGTI were stimulated with LPS for 10 min followed by monitoring the production of superoxide. […] C) Cells were transfected with Δp21^ras, Δp21^rac or an empty vector using Lipofectamine Plus. Twenty-four hour after transfection, cells were stimulated with LPS followed by monitoring superoxide production at 15 and 30 ‘rain of stimulation. ^ap<0.001 vs control; ^bp<0.001 vs LPS-15 min; ^cp<0.001 vs LPS-30 min. D) Cells preincubated with 500 μM NaPB were stimulated with LPS. At different time points, activation of p21^ras and p21^rac was monitored. Results represent three independent experiments.
# Next, we examined the effect of NaPB on the activation of p21^ras and p21^rac.
# Activation of p21^ras and p21^rac: Activation of p21^ras was monitored. Briefly, after 6 h of MPTP insult, ventral midbrain was dissected out and frozen immediately on dry ice. […] Then the amount of activated p21^ras was determined in GST beads by a Western blot using a p21^ras specific antibody.
# [11] = system: iNOS; remark: listed apart in the source
# Procedure: as §1, with “(F). […]” for “(F).”
# [12] = system: MPTP-intoxicated mice; conditions: NaPB 200 mg/kg body wt/day from 3 h after last MPTP; MPTP alone approximately 72% loss
# Procedure: We monitored the level of nigral GSH by HPLC.
# Analysis of GSH: Nigral tissues were dissected and then sonicated in 0.2M perchloric acid solution followed by centrifugation of nigral extracts at 12,000 rpm for 10 mins at 4° C. Resulting supernatants were analyzed for GSH in Complete Stand-Alone HPLC-ECD System EiCOMHTEC-500 using gold working electrode (Eicorn We-AU) and mobile phase containing 99% 0.1M sodium phosphate buffer (pH 2.5), 1% MeOH. (v/v), and 50 mg/L EDTA-2Na.
substance,measurement,setting,value
sodium phenylbutyrate [NaPB],MPP+-induced production of intracellular ROS,[1],strongly inhibited
same,LPS-induced DNA-binding activity of NF-κB,[2],inhibited
same,"MPTP-induced hypolocomotion (rotorod, movement time, total distance, rest time, stereotypy, rearing, horizontal activity)",[3],significantly improved
same,IL-1β-induced activation of iNOS promoter,[4],markedly inhibited
same,IL-1β-induced production of NO,[5],markedly inhibited
same,MPTP-induced mRNA expression of IL-1β in the nigra,[6],strongly inhibited
same,MPTP-induced mRNA expression of iNOS in the nigra,"[7]; 200 mg/kg body wt/d from 3 h after last MPTP, RT-PCR, real-time PCR",strongly inhibited
same,"expression of iNOS mRNA in the nigra, time course","[7]; 200 mg/kg body wt/d gavage from 1 d prior to MPTP, all time points tested (up to 24 h)",markedly inhibited
same,MPTP-induced expression of iNOS protein,"[7]; 200 mg/kg body wt/d oral from 3 h after last MPTP, 24 h",suppressed
same,MPTP-induced mRNA expression of TNF-α in the nigra,[8],strongly inhibited
same,decrease in striatal dopamine,[9],20-25%
same,LPS-induced activation of p21^ras,[10],markedly suppressed
same,LPS-induced mRNA expression of iNOS,"[11]; RT-PCR, 5 h LPS",dose-dependently inhibited
same,LPS-induced protein expression of iNOS,"[11]; Western blot, 24 h LPS",dose-dependently inhibited
same,loss of nigral GSH,[12],18%
